Measured values as given in patent US20140123342A1, “Regulation of Stomatal Apertures by Apyrases and Extracellular Nucleotides” (BOARD OF REGENTS, THE UNIVERSITY OF TEXAS SYSTEM, priority 2011, published 2014).

Assays:
Assay type in all cases: cell-based, Arabidopsis thaliana
[1] = tested on: stomata (guard cells) in whole leaves; experiment: Stomatal aperture closure studies, whole leaves in the light; details: for effect on ABA-induced stomatal closure / effect on ATPγS-induced stomatal closure: co-incubation
Description: (§1) Stomatal Aperture Studies: Arabidopsis thaliana ecotypes Columbia (Col-0) and Wassilewskija (WS) were used as wild types in this study. Col-0, nia1nia2, atrbohD/F, R2-4A and WS plants were all grown on autoclaved Metro-Mix 200 soil at 22° C. under continuous light. The mutant seeds nia1nia2 nia2-5; CS 2356; Col-0 background) were obtained from Dr. N. M. Crawford (University of California at San Diego) and the mutant seeds atrbohD/F (Col-0 background) were obtained from Dr. J. M. Kwak (University of Maryland). The RNAi mutant apyrase line (R2-4A) is in WS background, so WS ecotype was used as the control wild type for these studies. Leaves from 2 to 3 week old Col-0 plants, or R2-4A and WS plants treated with 4 μM estradiol for 1 week after development of mature basal leaves were used for peel and whole leaf studies. Plants were placed in the dark and watered 24 h before an study. For opening studies, plants were used immediately after 24 h dark treatment and all treatments were done in the dark except for the light treated leaves or peels, thus the control stomata are dark controls. For closure studies, plants were placed in the light 3 h before an study to induce stomatal opening and all treatments were done in the light, thus the control stomata are light controls. For peel studies, epidermal peels were made from the underside of the leaf and treatments were applied to the peels for 1 h. For whole leaf studies, leaves were removed and treatments were applied for 2 h. For each treatment, about 3 or 4 peels collected from different leaves or 3 or 4 different leaves of at least two different plants were floated with the abaxial side up in petri dishes on 3 mL of Arabidopsis leaf buffer consisting of 10 mM KCl, 25 mM MES pH 6.15 (Melotto et al., 2006) and the chemical being tested. For whole leaf studies peels were collected after the treatment.
(§2) For studies testing the effects of ATPγS, ADPγS, AMPS, RB2, and PPADS (Sigma, St. Louis, Mo., USA) 20 mM stocks were made by dissolving the compounds in de-ionized water. For studies testing the effects of apyrase inhibitors, 7.5 mg/mL of NGXT191 and of inhibitor #13 (Windsor et al., 2002) was dissolved in dimethyl sulfoxide (DMSO) and then applied at a dilution of […] for a final concentration of 0.1% DMSO. ABA (Sigma, St. Louis, Mo., USA) was dissolved in ethanol in 10 mM stocks and then applied at a dilution of 1:1000. The stocks were stored at −20° C. while not in use. The production of the anti-AtAPY1 antibodies used is described by Steinebrunner et al. (2003). The crude immune and pre-immune sera were purified using protein A-Sepharose following the protocol described by Martin (1982) with the slight modification that the buffers used were azide-free. The protein-A purified sera were both used at a 1:1000 dilution in leaf stomatal aperture studies. The concentration of the immune and pre-immune sera, determined by Bradford assay (Bio-Rad), was 10.2 μg/mL and 7.7 μg/mL, respectively.
(§3) After treatment, photos of stomata were taken using a light microscope at 20×. Stomatal aperture width was measured using the image processing software ImageJ. Typically, photos were taken of 70 to 90 stomata per treatment of which only 50 stomata were measured for each treatment. For each treatment the ratio of closed stomata (width of 0) to open stomata was determined for all stomata imaged and this ratio was maintained in the 50 stomata that were measured for each treatment. Data shown uses apertures determined as width/length, however data in all studies also obtained as width only and generally width/length and width only data are in agreement with each other. Statistical significance of the measurements for the treatments was determined using the Student's t test in Microsoft Excel.

[2] = tested on: stomata (guard cells) in epidermal peels; experiment: Stomatal aperture closure studies, epidermal peels in the light
Description: as §1, §2, §3

[3] = tested on: stomata (guard cells) in epidermal peels; experiment: Stomatal aperture opening studies, epidermal peels in the dark
Description: as §1, §2, §3

[4] = tested on: guard cells of x-luc1 and x-luc9 ecto-luciferase lines; experiment: Ecto-luciferase luminescence imaging of extracellular ATP in epidermal peels
Text: Ecto-luciferase Construct and Plant Transformation: The nucleotide sequence for the 24 amino acid, cleavable signal peptide from the Brassica pollen coat protein, S-locus cysteine-rich protein (SCR13; AF195626) was used to target luciferase for secretion (Schopfer et al., 1999). The signal peptide was incorporated at the N-terminus of the luciferase gene by PCR and the SCR13 signal peptide modified luciferase PCR product was then ligated into the binary vector pLBJ21. This construct was then transformed into Agrobacterium tumefaciens strain GV3101 (pMP90) and then transformed into Arabidopsis plants (Col-0) using the floral dipping method (Clough and Bent, 1998). Transgenic plants were selected by planting on solidified Murashige and Skoog (MS) medium (4.3 g/L Murashige and Skoog salts (Sigma), 0.5% (w/v) MES, and 1.0% (w/v) agar, raised to pH 5.7 with 5 M KOH) containing 50 μg/mL kanamycin. Segregation of T3 generation on kanamycin plates was analysed in order to obtain homozygous lines. Plants showing kanamycin resistance were checked for luciferase activity by growing transgenic plants in MS medium for 10 days and then transferring the whole seedlings into test tubes. Luminescence measurements were performed by placing the test tubes in the light-tight housing of the luminometer reader (Dynatech). Experimental solutions with luciferin substrate with and without 1 mM ATP were injected by an automatic injector, and after 3 seconds counting started at 0.2 second time intervals.
Imaging of Luminescence in Ecto-luciferase Plants: Ecto-luciferase seeds were surface-sterilized, stratified in the dark in 4° C. for at least three days and then planted directly on a cellophane membrane placed upon solidified MS with 1.0% (w/v) agar. Planted plates were placed upright in a culture chamber and grown at 23° C. under 24-h fluorescent light for 7 days. Plates were then reoriented so that the solidified MS medium was at the bottom of the plate and the seedling was able to grow up into the empty space of the petri dish. Seedlings were then allowed to mature for up to 4 weeks under identical temperature and light settings. For “dark” studies petri dishes of 3-4 week old plants were placed in a dark chamber for 24 hours prior to use in the studies.
Mature basal leaves were excised from x-luc1 and x-luc9 plants 3-4 weeks old. Peels were taken and then immediately floated with the abaxial side up in 40 μL, of Arabidopsis leaf buffer on a microscope slide and the chemical being tested in either light or dark conditions depending on the experimental setup. The placing of the peels within their respective solution was considered time zero. Peels were treated for a minimum of 5 minutes before luciferin and flash buffer were added to the solution. […] Luminescence was integrated over 120 seconds, High Gain, Read Out set to slow, using 4×4 pixel binning with Cosmic Suppression on, Background Correction off, and Flatfield Correction off with the filter set to Photo.
All luminescence analysis was conducted using the indiGO Analysis Software (version 2.0.0.26). All images consisted of a photographic image in grayscale with an overlaid luminescence image in pseudo color. […]

NO in guard cells = experiment: Detection and quantification of NO (DAF-2 DA fluorescence); details: co-incubation (data not shown)
Description: (§4) Detection and Quantification of H2O2 and NO: Col-0 plants were grown on soil for 2 to 4 weeks under continuous light at 21° C. Plants were placed in the dark for 24 h to ensure closure and then transferred to the light for 1 h. After 1 h in the light, mature basal leaves were excised and blended in a Waring blender on the low setting for approximately 10 s to isolate epidermal tissues, and the tissues were placed in 3 mL of 30 mM KCl, 10 mM Mes-KOH, pH 6.16 buffer in light for 2 h (Pei et al., 2000; Murata et al., 2001). DAF-2 DA and H2DCFDA were dissolved in DMSO to produce 5 mM and 10 mM stock solutions, respectively, and these were stored at −20° C. in 30 μL, aliquots. Fifty μM H2DCFDA or 15 μM DAF-2 DA was added to the medium in the dark, and after 30 min, 10 μM ABA, 200 μM ATPγS, or buffer (ATP control) was also added to the medium in the dark for 30 min. Peels were then rinsed by decanting the treatment solution and adding 3 mL fresh leaf buffer to the peels. Peels were rinsed twice as described. A peel from each of the three treatments (ABA, ATPγS and buffer) were placed on the same microscope slide and observed sequentially. A second study was staggered 30 to 45 min after the first by loading the H2DCFDA or DAF-2 DA dye to new peels 30 to 45 min after the first round of dye was added. Confocal laser scanning microscopy (CLSM) was performed with a Leica SP2 AOBS confocal microscope (Leica Microsystems, Bannockburn, Ill., USA). Laser power was set at 15%, with an excitation of 488 nm and an emission of 525 nm. A series of 0.5 μm optical sections with average intensity projection along the z axis were collected and made into one 2D image with greater focal depth. All images were obtained with the same software scanning settings including detector gain and laser intensity settings.

[5] = tested on: stomata (guard cells) in whole leaves; experiment: Stomatal aperture opening studies, whole leaves in the dark
Description: as §1
as §2, with “The crude immune and pre-immune sera were purified using protein A-Sepharose following the protocol described by Martin (1982) with the slight modification that the buffers used were azide-free. The protein-A purified sera were both used at a 1:1000 dilution in leaf stomatal aperture studies.” left out
as §3

H2O2 in guard cells = experiment: Detection and quantification of H2O2 (H2DCFDA fluorescence); details: co-incubation (data not shown)
Description: as §4

[6] = 30 μM, whole leaf studies (not shown)
[7] = co-incubation, 30 μM, leaves (data not shown)
[8] = co-incubation, epidermal peel studies (data not shown)

## O=C(Nc1cccc([N+](=O)[O-])c1)c1cccc(S(=O)(=O)Nc2ccc(Br)cc2)c1 [apyrase inhibitor #13, 3-{[(4-bromophenyl)amino]sulfonyl}-N-(3-nitrophenyl)benzamide]
[1]; 7.5 μg/mL, whole leaves (data not shown)
  effect on stomatal aperture: caused stomatal closure

## Nc1ncnc2c1ncn2[C@@H]1O[C@H](COP(O)(O)=S)[C@@H](O)[C@H]1O [AMPS]
[2]; 200 μM, dose-response tests, summary statement
  effect on stomatal aperture: neither 15 μM nor 200 μM AMPS has any effect
[2]; 250 μM, epidermal peels, light, 1 h
  effect on stomatal aperture: no effect on stomatal aperture
[3]; 15 μM, darkness, 1 h
  effect on stomatal aperture: no effect on stomatal aperture

## Nc1ncnc2c1ncn2[C@@H]1O[C@H](COP(=O)(O)OP(O)(O)=S)[C@@H](O)[C@H]1O [ADPβS]
[2]; epidermal peel studies, light
  threshold for nucleotide-induced stomatal closure: same threshold
[1]; whole leaf studies, compared with peel studies (150 to 200 μM; not shown)
  threshold for nucleotide-induced stomatal closure: the same as found in the peel studies
[4]; 200 μM, 5 min, open stomata (data not shown)
  ecto-luciferase luminescence of stomata, average: 2.75 cps

## Cc1cccc(NS(=O)(=O)c2ccc(-c3ccccc3)cc2)c1 [NGXT 191, N-(3-methylphenyl)-4-biphenylsulfonamide]
[2]; 7.5 μg/mL, epidermal peels, light, 1 h
  effect on stomatal aperture: induced stomatal closure

## Nc1ncnc2c1ncn2[C@@H]1O[C@H](COP(=O)(O)OP(=O)(O)OP(=O)(O)O)[C@@H](O)[C@H]1O [ATP]
[4]; 1 mM, 5 min or longer, x-luc1 and x-luc9 lines, centered around guard cells
  ecto-luciferase luminescence, average: 4.75 counts per second (cps)
[4]; 1 mM, pavement cells of the epidermis
  ecto-luciferase luminescence of pavement cells, average: 1.35 cps

## CC1(C)N([O])C(c2ccc(C(=O)O)cc2)=[N+]([O-])C1(C)C [cPTIO]
NO in guard cells
  effect on ABA- and ATPγS-induced DAF-2 DA fluorescence: blocked

## Nc1c(S(=O)(=O)O)cc(Nc2ccc(Nc3nc(Cl)nc(Nc4cccc(S(=O)(=O)O)c4)n3)c(S(=O)(=O)O)c2)c2c1C(=O)c1ccccc1C2=O [RB2, reactive blue 2]
[1]; 30 μM alone, closure studies, leaves
  effect on stomatal aperture: no effect alone
[1]; [6]
  effect on ABA-induced stomatal closure: partially block
  effect on ATPγS-induced stomatal closure: block
[5]; 30 μM alone, opening studies, leaves
  effect on stomatal aperture: no effect by itself
[5]; [7]
  effect on ATPγS-induced stomatal opening: block
  effect on light-induced stomatal opening: partially block

## Cc1nc(N=Nc2ccc(S(=O)(=O)O)cc2S(=O)(=O)O)c(COP(=O)(O)O)c(C=O)c1O [PPADS, pyridoxalphosphate-6-azo-phenyl-2′,4′-disulphonic acid]
[2]; 100 μM alone, epidermal peels, light
  effect on stomatal aperture: no effect by itself
[2]; co-incubation, 100 μM, with 7.5 μg/mL NGXT 191, epidermal peels
  effect on NGXT 191-induced stomatal closure: blocked
[2]; [8]
  effect on ABA-induced stomatal closure: partially block
  effect on ATPγS-induced stomatal closure: block
[1]; 100 μM alone, leaves, light
  effect on stomatal aperture: no effect alone
[1]; 100 μM, with 10 μM ABA, leaves
  effect on ABA-induced stomatal closure: partially blocked
[1]; 100 μM, with 200 μM ATPγS, leaves
  effect on ATPγS-induced stomatal closure: blocked
[3]; 100 μM alone, opening studies
  effect on stomatal aperture: no effect alone
[3]; co-incubation, 100 μM
  effect on light-induced stomatal opening: partially blocked
[3]; co-incubation, 100 μM, with 15 μM ATPγS
  effect on ATPγS-induced stomatal opening: blocked
[5]; whole leaves (data not shown), alone, on ATPγS-induced and on light-induced opening
  effects in opening studies compared with epidermal peels: the same effects

## CC(=O)N[C@@H](CS)C(=O)O [NAC, N-acetyl-L-cysteine]
H2O2 in guard cells
  effect on ABA- and ATPγS-induced H2DCFDA fluorescence: blocked
